Measurements from article PMC4077815, “Modulation of Phosphorylation of Tocopherol and Phosphatidylinositol by hTAP1/SEC14L2-Mediated Lipid Exchange” (PLoS ONE, 2014).

What was measured:
[1] = biological target: T1, recombinant hTAP1 (human tocopherol associated protein 1, hSEC14L2) (Homo sapiens, UniProt O76054); assay: isoelectric point mobility shift competition with phosphatidylinositol; assay type: binding; design: gene SEC14L2; N-terminal His tag, expressed in and purified from Escherichia coli; settings: read-out: 50% displacement of PI
[2] = biological target: T2, recombinant PI3Kγ/p110γ (phosphatidylinositol-3-kinase gamma) (Homo sapiens, UniProt P48736); assay: [γ-32P]-ATP phosphatidylinositol kinase assay, TLC; assay type: biochemical; settings: stimulator; no hTAP1; phosphatidylinositol 100 µM, ATP 20 µM, 4 mM MgCl2, pH 7.4, 37 °C
T2 construct: gene PIK3CG; no regulatory subunit mentioned

[3] = biological target: T1, recombinant hTAP1 (human tocopherol associated protein 1, hSEC14L2); design: gene SEC14L2; settings: competitor of phosphatidylinositol; native isoelectric focusing gel
[4] = biological target: recombinant phosphatidylinositol-3-kinase gamma PI3Kγ/p110γ (UniProt P48736)
Sequence of recombinant phosphatidylinositol-3-kinase gamma PI3Kγ/p110γ (P48736 whole entry): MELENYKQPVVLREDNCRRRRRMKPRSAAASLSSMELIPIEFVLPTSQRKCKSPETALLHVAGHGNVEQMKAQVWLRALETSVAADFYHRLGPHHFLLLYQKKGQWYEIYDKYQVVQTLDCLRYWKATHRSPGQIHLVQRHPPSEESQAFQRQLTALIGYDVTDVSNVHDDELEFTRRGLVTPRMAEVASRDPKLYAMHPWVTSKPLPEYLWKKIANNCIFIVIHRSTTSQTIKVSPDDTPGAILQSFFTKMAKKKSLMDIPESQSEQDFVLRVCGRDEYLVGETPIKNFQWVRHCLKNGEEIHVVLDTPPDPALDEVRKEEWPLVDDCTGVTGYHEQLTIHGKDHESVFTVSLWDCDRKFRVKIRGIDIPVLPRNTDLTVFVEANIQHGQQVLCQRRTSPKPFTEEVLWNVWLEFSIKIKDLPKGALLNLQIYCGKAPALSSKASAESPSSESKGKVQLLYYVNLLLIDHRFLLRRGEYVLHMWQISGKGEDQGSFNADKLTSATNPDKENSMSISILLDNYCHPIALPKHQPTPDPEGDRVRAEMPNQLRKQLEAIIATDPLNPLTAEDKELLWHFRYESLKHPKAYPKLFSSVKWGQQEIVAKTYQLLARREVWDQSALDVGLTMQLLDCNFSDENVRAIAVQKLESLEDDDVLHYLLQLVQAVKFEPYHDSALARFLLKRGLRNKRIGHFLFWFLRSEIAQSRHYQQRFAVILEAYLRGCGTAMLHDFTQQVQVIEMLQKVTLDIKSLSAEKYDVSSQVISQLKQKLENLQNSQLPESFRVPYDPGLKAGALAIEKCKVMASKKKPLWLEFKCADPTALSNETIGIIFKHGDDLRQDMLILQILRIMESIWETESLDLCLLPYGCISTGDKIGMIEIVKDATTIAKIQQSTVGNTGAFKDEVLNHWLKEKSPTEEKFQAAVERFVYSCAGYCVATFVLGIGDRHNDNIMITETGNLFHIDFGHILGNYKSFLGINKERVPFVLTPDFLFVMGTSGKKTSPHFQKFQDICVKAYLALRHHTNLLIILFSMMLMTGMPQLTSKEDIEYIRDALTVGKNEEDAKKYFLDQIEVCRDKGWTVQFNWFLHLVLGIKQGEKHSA

T2 sequence (P48736 whole entry): as above
T1 sequence (O76054 whole entry): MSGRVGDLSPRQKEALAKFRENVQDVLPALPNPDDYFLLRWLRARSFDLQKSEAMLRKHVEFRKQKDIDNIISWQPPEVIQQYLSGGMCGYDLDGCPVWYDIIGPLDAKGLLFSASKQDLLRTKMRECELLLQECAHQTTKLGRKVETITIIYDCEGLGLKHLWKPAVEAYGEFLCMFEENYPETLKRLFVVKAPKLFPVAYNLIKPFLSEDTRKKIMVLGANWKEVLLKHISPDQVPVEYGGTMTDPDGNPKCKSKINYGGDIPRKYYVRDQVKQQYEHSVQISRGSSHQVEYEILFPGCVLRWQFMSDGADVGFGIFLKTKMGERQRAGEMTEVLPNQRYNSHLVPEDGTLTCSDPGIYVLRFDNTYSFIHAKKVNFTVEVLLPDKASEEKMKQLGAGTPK
Sequence of recombinant human tocopherol associated protein 1 (O76054 whole entry): as above

Compound | % of control activity at 50 μM [2] | other results
Cc1c(C)c2c(c(C)c1O)CC[C@@](C)(CCC[C@H](C)CCC[C@H](C)CCCC(C)C)O2 [RRR-α-tocopherol] | All four tocopherols stimulated PI3Kγ activity with similar efficiency (Figure 4A) | IC50 [1]: 50 µM
Cc1cc(O)c(C)c2c1O[C@](C)(CCC[C@H](C)CCC[C@H](C)CCCC(C)C)CC2 [RRR-β-tocopherol] | All four tocopherols stimulated PI3Kγ activity with similar efficiency (Figure 4A) | 
Cc1c(O)cc2c(c1C)O[C@](C)(CCC[C@H](C)CCC[C@H](C)CCCC(C)C)CC2 [RRR-γ-tocopherol] | All four tocopherols stimulated PI3Kγ activity with similar efficiency (Figure 4A) | 
Cc1cc(O)cc2c1O[C@](C)(CCC[C@H](C)CCC[C@H](C)CCCC(C)C)CC2 [RRR-δ-tocopherol] | All four tocopherols stimulated PI3Kγ activity with similar efficiency (Figure 4A) | 
Cc1c(C)c2c(c(C)c1OP(=O)(O)O)CC[C@@](C)(CCC[C@H](C)CCC[C@H](C)CCCC(C)C)O2 [α-tocopheryl phosphate] | αTP stimulated PI3Kγ stronger than αT (Figure 4B) | isoelectric point mobility shift competition with phosphatidylinositol [3]: the competition with αTP was slightly weaker (Figure 3B)
recombinant human tocopherol associated protein 1 (from UniProt O76054 1-403) (natural protein) |  | in vitro PI3Kγ activity (phosphorylation of phosphatidylinositol with [γ-32P]-ATP, TLC) in the presence of recombinant hTAP1, relative to the control without hTAP1 [4]: 38%
